Assay results taken from patent US20230128357A1, “Compound Combination with Superior Herbicidal Activity” (priority 2020, published 2023).

What was measured:
Assay in all cases: Herbicidal action, field trial, post-emergence
Format in all cases: in vivo
Panicum maximum = tested on: Panicum maximum
Text: (§1) The growth stages of the different weed or crop plant species are indicated according to the BBCH monograph “Growth stages of mono- and dicotyledonous plants”, 2nd edition, 2001, ed. Uwe Meier, Federal Biological Research Centre for Agriculture and Forestry (Biologische Bundesanstalt für Land und Forstwirtschaft). The respective BBCH stages are mentioned in brackets for the different weed or crop plant species and indicate the BBCH stage for the majority of the respective weed or crop plant species.
(§2) The dose rates of herbicidal ingredients used in each case are indicated for the respective active ingredient in brackets and refer to the amount of active ingredient per hectare (g a.i./ha).
(§3) EC=A+B+C−[((A·B)+(A·C)+(B·C)]100)+(A·B·C/10000)

Chenopodium album = tested on: Chenopodium album
Text: as §1, §2, §3

Setaria viridis = tested on: Setaria viridis
Text: as §1, §2, §3

Polygonum convolvulus = tested on: Polygonum convolvulus
Text: as §1, §2, §3

Zea mays = tested on: Zea mays
Text: as §1, §2, §3

Echinocloa crus-galli = tested on: Echinocloa crus-galli
Text: as §1, §2, §3

Abutilon theophrasti = conditions: Table 2
Text: as §1, §2

Cc1ccc2c(c1)[C@H](Nc1nc(N)nc([C@@H](C)F)n1)[C@@H](C)C2 (mixture of isomers) [Indaziflam, N2-[(1R,2S)-2,3-dihydro-2,6-dimethyl-1H-inden-1-yl]-6-[(1RS)-1-fluoroethyl]-1,3,5-triazine-2,4-diamine]
Herbicidal Activity 13 DAT (EA) (Panicum maximum; 10 g a.i./ha, Table 12): 0%
Herbicidal Activity 13 DAT (EA) (Panicum maximum; 25 g a.i./ha, Table 12): 0%
Herbicidal Activity 13 DAT (EA) (Chenopodium album; 10 g a.i./ha, Table 9): 0%
Herbicidal Activity 13 DAT (EA) (Chenopodium album; 25 g a.i./ha, Table 9): 10%
Herbicidal Activity 13 DAT (EA) (Setaria viridis; 10 g a.i./ha, Table 10): 0%
Herbicidal Activity 13 DAT (EA) (Setaria viridis; 25 g a.i./ha, Table 10): 0%
Herbicidal Activity 13 DAT (EA) (Polygonum convolvulus; 10 g a.i./ha, Table 8): 20%
Herbicidal Activity 13 DAT (EA) (Polygonum convolvulus; 25 g a.i./ha, Table 8): 20%
Herbicidal Activity 13 DAT (EA) (Zea mays; 10 g a.i./ha, Table 13): 0%
Herbicidal Activity 13 DAT (EA) (Zea mays; 25 g a.i./ha, Table 13): 0%
Herbicidal Activity 13 DAT (EA) (Echinocloa crus-galli; 10 g a.i./ha, Table 11): 0%
Herbicidal Activity 13 DAT (EA) (Echinocloa crus-galli; 25 g a.i./ha, Table 11): 0%

O=C(Nc1ccc(F)cc1F)c1cccnc1Oc1cccc(C(F)(F)F)c1 [Diflufenican, diflufenican]
Herbicidal Activity 13 DAT (EA) (Abutilon theophrasti; 60 g a.i./ha): 35%
Herbicidal Activity 13 DAT (EA) (Abutilon theophrasti; 150 g a.i./ha): 65%
Herbicidal Activity 13 DAT (EA) (Panicum maximum; 60 g a.i./ha, Table 6): 10%
Herbicidal Activity 13 DAT (EA) (Panicum maximum; 90 g a.i./ha, Table 12): 10%
Herbicidal Activity 13 DAT (EA) (Panicum maximum; 150 g a.i./ha, Table 6): 10%
Herbicidal Activity 13 DAT (EA) (Panicum maximum; 150 g a.i./ha, Table 12): 10%
Herbicidal Activity 13 DAT (EA) (Chenopodium album; 60 g a.i./ha, Table 3): 10%
Herbicidal Activity 13 DAT (EA) (Chenopodium album; 90 g a.i./ha, Table 9): 10%
Herbicidal Activity 13 DAT (EA) (Chenopodium album; 150 g a.i./ha, Table 3): 10%
Herbicidal Activity 13 DAT (EA) (Chenopodium album; 150 g a.i./ha, Table 9): 10%
Herbicidal Activity 13 DAT (EA) (Setaria viridis; 60 g a.i./ha, Table 4): 0%
Herbicidal Activity 13 DAT (EA) (Setaria viridis; 90 g a.i./ha, Table 10): 0%
Herbicidal Activity 13 DAT (EA) (Setaria viridis; 150 g a.i./ha, Table 4): 0%
Herbicidal Activity 13 DAT (EA) (Setaria viridis; 150 g a.i./ha, Table 10): 0%
Herbicidal Activity 13 DAT (EA) (Polygonum convolvulus; 60 g a.i./ha, Table 1): 40%
Herbicidal Activity 13 DAT (EA) (Polygonum convolvulus; 90 g a.i./ha, Table 8): 45%
Herbicidal Activity 13 DAT (EA) (Polygonum convolvulus; 150 g a.i./ha, Table 1): 60%
Herbicidal Activity 13 DAT (EA) (Polygonum convolvulus; 150 g a.i./ha, Table 8): 60%
Herbicidal Activity 13 DAT (EA) (Zea mays; 60 g a.i./ha, Table 7): 13%
Herbicidal Activity 13 DAT (EA) (Zea mays; 90 g a.i./ha, Table 13): 10%
Herbicidal Activity 13 DAT (EA) (Zea mays; 150 g a.i./ha, Table 7): 25%
Herbicidal Activity 13 DAT (EA) (Zea mays; 150 g a.i./ha, Table 13): 25%
Herbicidal Activity 13 DAT (EA) (Echinocloa crus-galli; 60 g a.i./ha, Table 5): 0%
Herbicidal Activity 13 DAT (EA) (Echinocloa crus-galli; 90 g a.i./ha, Table 11): 0%
Herbicidal Activity 13 DAT (EA) (Echinocloa crus-galli; 150 g a.i./ha, Table 5): 0%
Herbicidal Activity 13 DAT (EA) (Echinocloa crus-galli; 150 g a.i./ha, Table 11): 0%

CCCCCCCCC(=O)O [Pelargonic acid]
Herbicidal Activity 13 DAT (EA) (Abutilon theophrasti; 6000 g a.i./ha): 40%
Herbicidal Activity 13 DAT (EA) (Abutilon theophrasti; 16000 g a.i./ha): 80%
Herbicidal Activity 13 DAT (EA) (Panicum maximum; 6000 g a.i./ha, Table 6): 10%
Herbicidal Activity 13 DAT (EA) (Panicum maximum; 6000 g a.i./ha, Table 12): 15%
Herbicidal Activity 13 DAT (EA) (Panicum maximum; 16000 g a.i./ha, Table 6): 65%
Herbicidal Activity 13 DAT (EA) (Panicum maximum; 16000 g a.i./ha, Table 12): 58%
Herbicidal Activity 13 DAT (EA) (Chenopodium album; 6000 g a.i./ha, Table 3): 45%
Herbicidal Activity 13 DAT (EA) (Chenopodium album; 6000 g a.i./ha, Table 9): 42.5%
Herbicidal Activity 13 DAT (EA) (Chenopodium album; 16000 g a.i./ha, Table 3): 88%
Herbicidal Activity 13 DAT (EA) (Chenopodium album; 16000 g a.i./ha, Table 9): 84%
Herbicidal Activity 13 DAT (EA) (Setaria viridis; 6000 g a.i./ha, Table 4): 40%
Herbicidal Activity 13 DAT (EA) (Setaria viridis; 6000 g a.i./ha, Table 10): 25%
Herbicidal Activity 13 DAT (EA) (Setaria viridis; 16000 g a.i./ha, Table 4): 55%
Herbicidal Activity 13 DAT (EA) (Setaria viridis; 16000 g a.i./ha, Table 10): 50%
Herbicidal Activity 13 DAT (EA) (Polygonum convolvulus; 6000 g a.i./ha, Table 1): 10%
Herbicidal Activity 13 DAT (EA) (Polygonum convolvulus; 6000 g a.i./ha, Table 8): 25%
Herbicidal Activity 13 DAT (EA) (Polygonum convolvulus; 16000 g a.i./ha, Table 1): 89%
Herbicidal Activity 13 DAT (EA) (Polygonum convolvulus; 16000 g a.i./ha, Table 8): 90%
Herbicidal Activity 13 DAT (EA) (Zea mays; 6000 g a.i./ha, Table 7): 40%
Herbicidal Activity 13 DAT (EA) (Zea mays; 6000 g a.i./ha, Table 13): 39%
Herbicidal Activity 13 DAT (EA) (Zea mays; 16000 g a.i./ha, Table 7): 60%
Herbicidal Activity 13 DAT (EA) (Zea mays; 16000 g a.i./ha, Table 13): 63%
Herbicidal Activity 13 DAT (EA) (Echinocloa crus-galli; 6000 g a.i./ha, Table 5): 25%
Herbicidal Activity 13 DAT (EA) (Echinocloa crus-galli; 6000 g a.i./ha, Table 11): 13%
Herbicidal Activity 13 DAT (EA) (Echinocloa crus-galli; 16000 g a.i./ha, Table 5): 35%
Herbicidal Activity 13 DAT (EA) (Echinocloa crus-galli; 16000 g a.i./ha, Table 11): 30%
